On to `Cc1ccc(-c2nc(C(F)(F)F)cn2-c2ccc(S(C)(=O)=O)cc2)nc1` [Example 33, 5-Methyl-2-[1-[4-(methylsulfonyl)phenyl]-4-trifluoromethyl-1H-imidazol-2-yl]pyridine], for which the melting point was 196 °C.
`CS(=O)(=O)c1ccc(C2=NC(O)(C(F)(F)F)CN2c2ccc(F)cc2)cc1` (stereo not shown) [Example 3, 1-(4-Fluorophenyl)-4-hydroxy-2-[4-(methyloulfonyl)phenyl]-4-(trifluoromethyl)-4,5-dihydro-1H-imidazole] registered a melting point of 209 °C.
`CS(=O)(=O)c1ccc(-n2cc(COc3ccc(Cl)cc3)nc2-c2ccc(Cl)cc2)cc1` [Example 15, 2-(4-Chlorophenyl)-4-[(4-chlorophenoxy)methyl]-1-[4-(methylsulfonyl)phenyl]-1H-imidazole] gave a melting point of 173 °C.
Compound `Cc1ncccc1-c1nc(C(F)(F)F)cn1-c1ccc(S(C)(=O)=O)cc1` [Example 44, 2-Methyl-3-[1-[4-(methyloulfonyl)phenyl]-4-(trifluoromethyl)-1H-imidazol-2-yl]pyridine] came in with a melting point of 160 to 161 °C.
Consider `Cc1ncccc1-c1nc(C(F)(F)F)cn1-c1ccc(S(N)(=O)=O)cc1` [Example 45, 4-[2-(2-Methylpyridin-3-yl)-4-(trifluoromethyl)-1H-imidazol-1-yl]benzenesulfonamide], for which the melting point lay within 235 to 237 °C.
`CS(=O)(=O)c1ccc(-n2cc(C(F)(F)F)nc2-c2ccc(Cl)cc2)cc1` [Example 2, 2-(4-Chlorophenyl)-1-[4-(methylsulfonyl)phenyl]-4-(trifluoromethyl)-1H-imidazole] registered a melting point of 183 °C.
`CS(=O)(=O)c1ccc(-n2cc(C(F)(F)F)nc2-c2cccs2)cc1` registered a melting point of 182 °C.
To `Cc1ccnc(-c2nc(C(F)(F)F)cn2-c2ccc(S(N)(=O)=O)cc2)c1` [Example 40, 4-[2-(4-Methylpyridin-2-yl)-4-(trifluoromethyl)-1H-imidazol-1-yl]benzenesulfonamide] belongs 283 °C.
Compound `CS(=O)(=O)c1ccc(-n2cc(CN=[N+]=[N-])nc2-c2ccc(Cl)cc2)cc1` [Example 165, 4-Azidomethyl-2-(4-chlorophenyl)-1-[4-(methylsulfonyl)phenyl]-1H-imidazole] had a melting point of 186 °C.
As for `CS(=O)(=O)c1ccc(-n2cc(C(F)(F)F)nc2-c2ccsc2)cc1` [Example 42], the melting point lay in the range of 194 to 197 °C.

For the origin of these results see patent publication US7220770B2, “Heterocyclo-substituted imidazoles for the treatment of inflammation” (priority 1994, dated 2007).
